Entries after “also recorded” stand apart in the source; their conditions may differ.

The record followed here is paper PMC7948422, “Repurposing p97 inhibitors for chemical modulation of the bacterial ClpB–DnaK bichaperone system” (The Journal of Biological Chemistry, 2020).

One test has as its target T1, E. coli ClpB (Escherichia coli, UniProt P63284).
T1 construct: made in house
It counts as biochemical. The procedure: To determine the ATPase activity, ClpB was diluted to 28 μg/ml (49-nM hexamer) in buffer C (50-mM Tris-HCl, pH 7.4, 20-mM MgCl2, 1-mM EDTA, 0.5-mM tris(2-carboxyethyl)phosphine [TCEP]). In some experiments, the ClpB solution was supplemented with 17.4 μg/ml (10 μM) κ-casein. The ClpB aliquots (18 μl) were mixed with 1 μl of the investigated compounds at different concentrations in 100% DMSO or with DMSO as a control. A sample without ClpB was used as a baseline control. After a 10-min preincubation at 37 or 45 °C, the ATP hydrolysis reaction was initiated by adding 1 μl of 100-mM ATP. The samples were incubated for 60 min (basal ClpB activity in the absence of κ-casein) or 15 min (in the presence of κ-casein) at 37 °C or 30 min at 45 °C in the absence of casein. For the E678Q ClpB variant, the incubation time in the presence of κ-casein was 60 min. After incubation, 15 μl of each sample was mixed with 200 μl of the ammonium molybdate/malachite green reagent ([67]) dispensed into a 96-well plate, followed by an addition of 30 μl of 34% sodium citrate ([68]). The plate was agitated inside a Synergy H1 reader (BioTek, Winooski, VT) for 15 min at room temperature, and the samples’ absorbance was measured at 630 nm. The readouts for ClpB-containing samples were corrected for absorbance of samples without ClpB, to account for nonenzymatic production of inorganic phosphate. A standard curve obtained with different inorganic phosphate concentrations was used to determine the amount of phosphate produced from ATP in the presence of ClpB.

The target in the next test is T2, DnaK–DnaJ–GrpE (KJE) (Escherichia coli, UniProt P0A6Y8).
T2 construct: full-length E. coli DnaK (residues 1–638); made in house; host or cells: E. coli BL21(DE3) for DnaK
The test can be described thus: Aggregate reactivation assay with KJE alone. It counts as biochemical. The protocol: G6PDH was chemically denatured by mixing 5 μl of the G6PDH stock solution (441 μM) with 5 μl of buffer A (10 M urea, 16% glycerol, 40-mM DTT) preheated at 47 °C. The samples of G6PDH in buffer A were incubated for 5 min at 47 °C. Subsequently, 5 μl of denatured G6PDH was mixed with 95 μl of buffer B (50-mM Tris-HCl, pH 7.4, 20-mM Mg(OAc)2, 30-mM KCl, 1-mM EDTA, 1-mM β-mercaptoethanol) preheated at 47 °C to initiate protein refolding, which, under these conditions, is inefficient and leads to misfolding and aggregation of G6PDH ([69]). G6PDH aggregate production was arrested after 1 min (for refolding by KJE) or 15 min (for refolding by KJE with ClpB) by transferring into ice for 2 min. […] The plate was inserted into Synergy H1 plate reader (BioTek, Winooski, VT) with the chamber temperature at 30 °C, and the sample absorbance at 340 nm was measured after 10 min. The amount of NADPH produced was calculated based on the NADPH molar extinction coefficient, Ɛ340 = 6220 [M^−1 ⋅ cm^−1].
Firefly luciferase (220 μM) was diluted 300-fold in PBS buffer with 1 mg/ml bovine serum albumin and then incubated for 12 min at 45 °C. […] Luminescence was measured using Synergy H1 plate reader (BioTek, Winooski, VT).

T1 sequence (P63284 whole entry): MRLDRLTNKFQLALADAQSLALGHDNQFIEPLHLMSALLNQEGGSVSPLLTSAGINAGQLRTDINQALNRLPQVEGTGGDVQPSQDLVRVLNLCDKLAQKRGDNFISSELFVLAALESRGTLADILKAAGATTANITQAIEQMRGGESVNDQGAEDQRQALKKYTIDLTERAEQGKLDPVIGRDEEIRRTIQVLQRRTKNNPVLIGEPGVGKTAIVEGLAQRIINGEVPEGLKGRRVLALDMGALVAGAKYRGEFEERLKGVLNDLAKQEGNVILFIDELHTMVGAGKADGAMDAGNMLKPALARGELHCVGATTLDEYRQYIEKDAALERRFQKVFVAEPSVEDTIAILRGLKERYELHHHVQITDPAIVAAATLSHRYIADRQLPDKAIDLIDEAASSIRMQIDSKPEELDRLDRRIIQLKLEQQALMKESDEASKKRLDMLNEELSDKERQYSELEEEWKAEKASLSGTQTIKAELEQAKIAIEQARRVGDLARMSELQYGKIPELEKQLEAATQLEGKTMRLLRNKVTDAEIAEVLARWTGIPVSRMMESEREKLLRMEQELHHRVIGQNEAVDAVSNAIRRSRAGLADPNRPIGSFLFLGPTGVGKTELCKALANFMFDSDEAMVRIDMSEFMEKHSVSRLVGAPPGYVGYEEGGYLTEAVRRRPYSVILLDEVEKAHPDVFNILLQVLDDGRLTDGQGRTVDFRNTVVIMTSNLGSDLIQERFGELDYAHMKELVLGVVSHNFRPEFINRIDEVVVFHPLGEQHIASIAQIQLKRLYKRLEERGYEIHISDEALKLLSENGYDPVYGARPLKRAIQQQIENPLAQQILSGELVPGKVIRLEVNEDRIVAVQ
T2 sequence (P0A6Y8 whole entry, the tested form may be a part): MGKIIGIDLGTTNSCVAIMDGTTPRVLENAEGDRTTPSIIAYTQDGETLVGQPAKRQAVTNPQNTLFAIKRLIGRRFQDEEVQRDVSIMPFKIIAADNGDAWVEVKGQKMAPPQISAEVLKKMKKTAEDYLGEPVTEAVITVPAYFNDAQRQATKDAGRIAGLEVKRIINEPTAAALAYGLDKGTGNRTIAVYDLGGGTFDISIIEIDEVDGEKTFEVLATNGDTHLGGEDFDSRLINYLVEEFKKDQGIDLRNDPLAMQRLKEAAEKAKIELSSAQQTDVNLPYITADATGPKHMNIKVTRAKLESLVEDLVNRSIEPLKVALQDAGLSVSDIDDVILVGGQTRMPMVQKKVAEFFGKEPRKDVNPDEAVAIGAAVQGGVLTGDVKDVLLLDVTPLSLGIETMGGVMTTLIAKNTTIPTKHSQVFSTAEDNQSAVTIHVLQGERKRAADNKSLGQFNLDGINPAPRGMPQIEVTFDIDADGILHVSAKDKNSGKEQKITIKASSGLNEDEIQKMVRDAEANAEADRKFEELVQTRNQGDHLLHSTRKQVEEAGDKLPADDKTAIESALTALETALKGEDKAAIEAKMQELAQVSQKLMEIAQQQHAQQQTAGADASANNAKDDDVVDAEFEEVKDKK

Turning to `c1ccc(CNc2nc(NCc3ccccc3)c3ccccc3n2)cc1` [DBeQ, N^2,N^4-dibenzylquinazoline-2,4-diamine], the “inhibition of the basal ClpB ATPase” value at E. coli ClpB (100 μM compound, no casein, 37 °C) is “None of the above compounds, except C3, showed a significant inhibition”. Also, on E. coli ClpB (100 μM compound, with κ-casein, 37 °C), the “inhibition of the ClpB ATPase in the presence of casein” value is given as “strongly inhibited”. In addition, the “effect on basal ClpB ATPase under heat-shock conditions” value at E. coli ClpB (45 °C, no casein) is given as “unaffected; also recorded: does not inhibit”. In addition, at DnaK–DnaJ–GrpE (KJE), the “inhibition of DnaK chaperone activity in vitro” value was “inhibited”. The “inhibition of ClpB-independent reactivation of aggregated luciferase” value on DnaK–DnaJ–GrpE (KJE) (KJE alone, 20 min, 25 °C) is reported as “inhibited”.
